Target: T1, ABCG2 (Homo sapiens, UniProt Q9UNQ0)
T1 sequence (Q9UNQ0 1-655): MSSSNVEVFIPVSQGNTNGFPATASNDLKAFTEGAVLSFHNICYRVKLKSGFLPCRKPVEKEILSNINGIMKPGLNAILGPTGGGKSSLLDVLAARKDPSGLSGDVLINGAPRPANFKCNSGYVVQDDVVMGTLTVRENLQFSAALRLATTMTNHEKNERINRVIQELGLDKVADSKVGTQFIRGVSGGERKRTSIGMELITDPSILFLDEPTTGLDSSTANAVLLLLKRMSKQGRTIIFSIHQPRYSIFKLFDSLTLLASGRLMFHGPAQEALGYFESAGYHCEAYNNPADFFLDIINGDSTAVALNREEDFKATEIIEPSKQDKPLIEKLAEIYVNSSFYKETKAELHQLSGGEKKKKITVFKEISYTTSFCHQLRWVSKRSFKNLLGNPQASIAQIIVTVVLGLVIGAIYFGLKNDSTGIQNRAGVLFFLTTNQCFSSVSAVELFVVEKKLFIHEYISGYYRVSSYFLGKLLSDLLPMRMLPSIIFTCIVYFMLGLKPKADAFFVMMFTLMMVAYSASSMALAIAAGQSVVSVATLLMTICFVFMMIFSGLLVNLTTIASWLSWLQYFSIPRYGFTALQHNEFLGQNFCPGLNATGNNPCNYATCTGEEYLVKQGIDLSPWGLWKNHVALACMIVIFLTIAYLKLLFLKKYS
Assay: ABCG2-mediated mitoxantrone efflux
Type: cell-based
Details: 6 versus 3; 10 versus 5

SMILES	fold decrease of inhibition caused by hydroxyl group at 4′ position
COc1cc(C(=O)/C=C/c2ccc3nccnc3c2)cc(OC)c1O [Compound 10, (2E)-1-(3′,5′-dimethoxy,4′-hydroxy-phenyl)-3-(quinoxalin-6-yl)-2-propen-1-one]	5 fold
COc1cc(C(=O)/C=C/c2ccc3nccnc3c2)ccc1O [Compound 6, (2E)-1-(3′-methoxy,4′-hydroxy-phenyl)-3-(quinoxalin-6-yl)-2-propen-1-one]	8 fold
